{
  "source": "ChEMBL document CHEMBL1155888",
  "about": "“Synthesis, inhibitory activities, and QSAR study of xanthone derivatives as alpha-glucosidase inhibitors” (Bioorg Med Chem, 2008)",
  "data": [
    {"assay": "Inhibition of yeast alpha glucosidase in phosphate buffer after 0.5 hrs by spectrophotometry", "parameters": "species or system Saccharomyces", "units": {"IC50": "µM"}, "values": [
      {"smiles": "O=c1c2ccccc2oc2cccc(O)c12", "IC50": 177},
      {"smiles": "COc1cc(O)c2c(=O)c3ccccc3oc2c1", "IC50": 173},
      {"smiles": "Oc1cc(O)c2c(c1)Oc1cc3ccccc3cc1C2", "IC50": 27.8},
      {"smiles": "COc1cc(O)c2c(=O)c3cc4ccccc4cc3oc2c1", "IC50": 31.3},
      {"smiles": "Oc1cc(O)c2c(c1)Oc1ccc3ccccc3c1C2", "IC50": 34.9},
      {"smiles": "O=c1c2cc3ccccc3cc2oc2cc(O)cc(O)c12", "IC50": 9.3},
      {"smiles": "O=c1c2cc3cc(O)ccc3cc2oc2cc(O)cc(O)c12", "IC50": 5.8},
      {"smiles": "O=c1c2cc3cccc(O)c3cc2oc2cc(O)cc(O)c12", "IC50": 8},
      {"smiles": "O=c1c2ccccc2oc2cc(OCC3CO3)cc(O)c12", "note": "(stereo not drawn)", "IC50": 66.6},
      {"smiles": "O=c1c2cc(O)ccc2oc2cc(O)cc(O)c12", "IC50": 14.7},
      {"smiles": "O=c1c2cc3ccccc3cc2oc2c([N+](=O)[O-])c(O)cc(O)c12", "IC50": 20.1},
      {"smiles": "O=c1c2c(O)cc(O)cc2oc2ccc3ccccc3c12", "IC50": 39.9},
      {"smiles": "O=c1c2ccccc2oc2cc(O)cc(O)c12", "IC50": 161},
      {"smiles": "CCCCCOc1cc(O)c2c(=O)c3ccccc3oc2c1", "IC50": 121},
      {"smiles": "O=c1c2ccc(O)cc2oc2cccc(O)c12", "IC50": 131},
      {"smiles": "Nc1c(O)cc(O)c2c(=O)c3ccccc3oc12", "IC50": 102},
      {"smiles": "CC(=O)Oc1cc(OC(C)=O)c2c(=O)c3ccccc3oc2c1", "IC50": 31.9},
      {"smiles": "O=c1c2ccccc2oc2cc(OCC3CCCO3)cc(O)c12", "note": "(stereo not drawn)", "IC50": 53},
      {"smiles": "O=c1c2ccc(OCCCN3CCCCC3)cc2oc2cccc(O)c12", "IC50": 133},
      {"smiles": "CCCCCCCOc1cc(O)c2c(=O)c3ccccc3oc2c1", "IC50": 114},
      {"smiles": "CCCCCCCCOc1cc(O)c2c(=O)c3ccccc3oc2c1", "IC50": 124},
      {"smiles": "O=c1c2ccc(O)cc2oc2cc(O)cc(O)c12", "IC50": 41.5},
      {"smiles": "CC(=O)Oc1cc(OC(C)=O)c2c(=O)c3cc(OC(C)=O)ccc3oc2c1", "IC50": 46.5},
      {"smiles": "CCCCCCCCCCOc1cc(O)c2c(=O)c3ccccc3oc2c1", "IC50": 116},
      {"smiles": "O=c1c2ccccc2oc2cc(OCc3ccccc3)cc(O)c12", "IC50": 98.2},
      {"smiles": "CCCCOc1cc(O)c2c(=O)c3ccccc3oc2c1", "IC50": 130},
      {"smiles": "CCOc1cc(O)c2c(=O)c3ccccc3oc2c1", "IC50": 111},
      {"smiles": "O=c1c2c(O)cccc2oc2cc(O)cc(O)c12", "IC50": 81.8},
      {"smiles": "CC(=O)Oc1cc(OC(C)=O)c2c(=O)c3c(OC(C)=O)cc(OC(C)=O)cc3oc2c1", "IC50": 49.7},
      {"smiles": "O=c1c2ccccc2oc2c([N+](=O)[O-])c(O)cc(O)c12", "IC50": 235},
      {"smiles": "O=c1c2cc3ccccc3cc2oc2cc(OCCCBr)cc(O)c12", "IC50": 29.7},
      {"smiles": "Nc1c(O)cc2oc3cc4ccccc4cc3c(=O)c2c1O", "IC50": 6.3},
      {"smiles": "O=c1c2ccccc2oc2cc(OCCCBr)cc(O)c12", "IC50": 147},
      {"smiles": "O=c1c2ccccc2oc2c3c(cc(O)c12)OCCC3", "IC50": 198},
      {"smiles": "O=c1c2cc3ccccc3cc2oc2cc(O)c([N+](=O)[O-])c(O)c12", "IC50": 5.9},
      {"smiles": "O=c1c2c(O)cccc2oc2cccc(O)c12", "IC50": 91.5},
      {"smiles": "O=c1c2ccc(OCC3CO3)cc2oc2cccc(O)c12", "note": "(stereo not drawn)", "IC50": 63.5},
      {"smiles": "O=c1c2c(O)cc(O)cc2oc2cc(O)cc(O)c12", "IC50": 17.1},
      {"smiles": "CC(=O)Oc1ccc2c(=O)c3c(OC(C)=O)cccc3oc2c1", "IC50": 139},
      {"smiles": "O=c1c2ccccc2oc2cc(OCCCN3CCN(c4cccc(Cl)c4)CC3)cc(O)c12", "IC50": 61.8},
      {"smiles": "O=c1c2ccccc2oc2cc(OCCCN3CCCCC3)cc(O)c12", "IC50": 115},
      {"smiles": "O=c1c2cc3ccccc3cc2oc2c3c(cc(O)c12)OCCC3", "IC50": 67.3},
      {"smiles": "Nc1c(O)cc(O)c2c(=O)c3cc4ccccc4cc3oc12", "IC50": 8.3}
    ]}
  ]
}
